In patent US20130203591A1, “PESTICIDAL MIXTURES INCLUDING ISOXAZOLINE DERIVATIVES” (SYNGENTA CROP PROTECTION LLC, priority 2010, published 2013):

How the values were obtained:
Assay type in all cases: cell-based
Septoria tritici = Septoria tritici (leaf blotch) growth inhibition in nutrient broth, microtiter plate
Experimental: Septoria tritici (Leaf Blotch):
(§1) Conidia of the fungus from cryogenic storage were directly mixed into nutrient broth (potato dextrose broth). After placing a (DMSO) solution of the test compounds into a microtiter plate (96-well format) the nutrient broth containing the fungal spores was added. The test plates were incubated at 24° C. and the inhibition of growth was determined photometrically after 72 hours.

[1] = tested on: Mycosphaerella arachidis (syn. Cercospora arachidicola); test: Mycosphaerella arachidis (brown leaf spot of groundnut) growth inhibition in nutrient broth, microtiter plate
Experimental: Mycosphaerella arachidis (syn. Cercospora arachidicola), Brown Leaf Spot of Groundnut (Peanut):
Conidia of the fungus from cryogenic storage were directly mixed into nutrient broth (potato dextrose broth). After placing a (DMSO) solution of the test compounds into a microtiter plate (96-well format) the nutrient broth containing the fungal spores was added. The test plates were incubated at 24° C. and the inhibition of growth was determined photometrically after approximately 5-6 days at 620 nm.

Botrvtis cinerea = test: Botrytis cinerea (gray mould) growth inhibition in nutrient broth, microtiter plate
Experimental: Botrvtis cinerea (Gray Mould):
as §1

[2] = tested on: Glomerella lagenarium (syn. Colletotrichum lagenarium); test: Glomerella lagenarium (anthracnose of cucurbits) growth inhibition in nutrient broth, microtiter plate
Experimental: Glomerella lagenarium (syn. Colletotrichum lagenarium), Anthracnose of Cucurbits:
Conidia of the fungus from cryogenic storage were directly mixed into nutrient broth (potato dextrose broth). After placing a (DMSO) solution of the test compounds into a microtiter plate (96-well format) the nutrient broth containing the fungal spores was added. The test plates were incubated at 24° C. and the inhibition of growth was determined photometrically after 72 hours at 620 nm.

Fusarium culmorum = Fusarium culmorum (root rot) growth inhibition in nutrient broth, microtiter plate; details: for AVERAGE DEAD IN % Epoxiconazole: Epoxiconazole alone; for AVERAGE DEAD IN % Epoxiconazole / AVERAGE DEAD IN % COMPOUND I-A2: 48 hrs, 24° C.; for AVERAGE DEAD IN % COMPOUND I-A2: COMPOUND I-A2 alone
Experimental: Fusarium culmorum (Root Rot):
Conidia of the fungus from cryogenic storage were directly mixed into nutrient broth (potato dextrose broth). After placing a (DMSO) solution of the test compounds into a microtiter plate (96-well format) the nutrient broth containing the fungal spores was added. The test plates were incubated at 24° C. and the inhibition of growth was determined photometrically after 48 hrs.

[3] = Fluxapyroxad alone 0.125 ppm AI
[4] = Pyraclostrobin alone 0.5 ppm AI
[5] = Pyraclostrobin alone 0.00390625 ppm AI
[6] = Epoxiconazole alone 0.25 ppm AI
[7] = Epoxiconazole alone 0.0078125 ppm AI
[8] = Epoxiconazole alone 0.015625 ppm AI
[9] = Epoxiconazole alone 0.03125 ppm AI
[10] = Azoxystrobin alone 0.015625 ppm AI
[11] = Azoxystrobin alone 0.03125 ppm AI
[12] = Azoxystrobin alone 0.0625 ppm AI

SMILES: Cn1cc(C(=O)Nc2ccccc2-c2cc(F)c(F)c(F)c2)c(C(F)F)n1 [Fluxapyroxad]
- AVERAGE DEAD IN % (Septoria tritici; [3]): 20%
- AVERAGE DEAD IN % (Septoria tritici; Fluxapyroxad alone 0.25 ppm AI): 70%
- AVERAGE DEAD IN % (Septoria tritici; Fluxapyroxad alone 0.5 ppm AI): 100%
- AVERAGE DEAD IN % (Septoria tritici; Fluxapyroxad alone 1 ppm AI): 100%
- AVERAGE DEAD IN % ([1]; Fluxapyroxad alone 0.015625 ppm AI): 0%
- AVERAGE DEAD IN % ([1]; Fluxapyroxad alone 0.03125 ppm AI): 20%
- AVERAGE DEAD IN % ([1]; Fluxapyroxad alone 0.0625 ppm AI): 50%
- AVERAGE DEAD IN % [1, 3]: 90%
- AVERAGE DEAD IN % ([1]; Fluxapyroxad alone 0.25 ppm AI): 100%

SMILES: O=C(Nc1ccccc1-c1ccc(Cl)cc1)c1cccnc1Cl [Boscalid]
- AVERAGE DEAD IN % (Botrvtis cinerea; Boscalid alone 0.0625 ppm AI): 20%
- AVERAGE DEAD IN % (Botrvtis cinerea; Boscalid alone 0.125 ppm AI): 20%
- AVERAGE DEAD IN % (Botrvtis cinerea; Boscalid alone 0.25 ppm AI): 20%
- AVERAGE DEAD IN % (Botrvtis cinerea; Boscalid alone 0.5 ppm AI): 50%
- AVERAGE DEAD IN % (Botrvtis cinerea; Boscalid alone 1 ppm AI): 70%
- AVERAGE DEAD IN % (Botrvtis cinerea; Boscalid alone 2 ppm AI): 90%
- AVERAGE DEAD IN % (Septoria tritici; Boscalid alone 0.25 ppm AI): 20%
- AVERAGE DEAD IN % (Septoria tritici; Boscalid alone 0.5 ppm AI): 50%
- AVERAGE DEAD IN % (Septoria tritici; Boscalid alone 1 ppm AI): 90%
- AVERAGE DEAD IN % (Septoria tritici; Boscalid alone 2 ppm AI): 100%
- AVERAGE DEAD IN % ([1]; Boscalid alone 0.125 ppm AI): 70%
- AVERAGE DEAD IN % ([1]; Boscalid alone 0.25 ppm AI): 100%
- AVERAGE DEAD IN % ([1]; Boscalid alone 0.5 ppm AI): 100%

SMILES: COC(=O)N(OC)c1ccccc1COc1ccn(-c2ccc(Cl)cc2)n1 [Pyraclostrobin]
- AVERAGE DEAD IN % (Botrvtis cinerea; Pyraclostrobin alone 0.125 ppm AI): 20%
- AVERAGE DEAD IN % (Botrvtis cinerea; Pyraclostrobin alone 0.25 ppm AI): 20%
- AVERAGE DEAD IN % (Botrvtis cinerea; [4]): 20%
- AVERAGE DEAD IN % (Botrvtis cinerea; Pyraclostrobin alone 1 ppm AI): 50%
- AVERAGE DEAD IN % (Botrvtis cinerea; Pyraclostrobin alone 2 ppm AI): 70%
- AVERAGE DEAD IN % [2, 5]: 70%
- AVERAGE DEAD IN % ([2]; Pyraclostrobin alone 0.0078125 ppm AI): 90%
- AVERAGE DEAD IN % (Septoria tritici; [5]): 90%
- AVERAGE DEAD IN % [1, 5]: 90%
- AVERAGE DEAD IN % (Fusarium culmorum; [4]): 20%
- AVERAGE DEAD IN % (Fusarium culmorum; Pyraclostrobin alone 1 ppm AI): 20%
- AVERAGE DEAD IN % (Fusarium culmorum; Pyraclostrobin alone 2 ppm AI): 20%

SMILES: Fc1ccc([C@]2(Cn3cncn3)O[C@H]2c2ccccc2Cl)cc1 (racemic) [Epoxiconazole]
- AVERAGE DEAD IN % (Botrvtis cinerea; [6]): 20%
- AVERAGE DEAD IN % (Botrvtis cinerea; Epoxiconazole alone 0.5 ppm AI): 90%
- AVERAGE DEAD IN % (Botrvtis cinerea; Epoxiconazole alone 1 ppm AI): 100%
- AVERAGE DEAD IN % (Botrvtis cinerea; Epoxiconazole alone 2 ppm AI): 100%
- AVERAGE DEAD IN % [2, 6]: 20%
- AVERAGE DEAD IN % ([2]; Epoxiconazole alone 0.5 ppm AI): 50%
- AVERAGE DEAD IN % ([2]; Epoxiconazole alone 1 ppm AI): 70%
- AVERAGE DEAD IN % ([2]; Epoxiconazole alone 2 ppm AI): 90%
- AVERAGE DEAD IN % (Septoria tritici; [7]): 0%
- AVERAGE DEAD IN % (Septoria tritici; [8]): 0%
- AVERAGE DEAD IN % (Septoria tritici; [9]): 20%
- AVERAGE DEAD IN % (Septoria tritici; Epoxiconazole alone 0.0625 ppm AI): 50%
- AVERAGE DEAD IN % (Septoria tritici; Epoxiconazole alone 0.125 ppm AI): 70%
- AVERAGE DEAD IN % (Septoria tritici; [6]): 90%
- AVERAGE DEAD IN % (Septoria tritici; Epoxiconazole alone 0.5 ppm AI): 90%
- AVERAGE DEAD IN % (Septoria tritici; Epoxiconazole alone 1 ppm AI): 90%
- AVERAGE DEAD IN % (Septoria tritici; Epoxiconazole alone 2 ppm AI): 90%
- AVERAGE DEAD IN % [1, 7]: 0%
- AVERAGE DEAD IN % [1, 8]: 0%
- AVERAGE DEAD IN % [1, 9]: 20%
- AVERAGE DEAD IN % Epoxiconazole (Fusarium culmorum; 0.125 PPM AI): 20%
- AVERAGE DEAD IN % Epoxiconazole (Fusarium culmorum; 0.25 PPM AI): 20%
- AVERAGE DEAD IN % Epoxiconazole (Fusarium culmorum; 0.5 PPM AI): 20%
- AVERAGE DEAD IN % Epoxiconazole (Fusarium culmorum; 1 PPM AI): 20%
- AVERAGE DEAD IN % Epoxiconazole (Fusarium culmorum; 2 PPM AI): 20%

SMILES: Cc1cc(C2=NOC(c3cc(Cl)cc(Cl)c3)(C(F)(F)F)C2)ccc1C(=O)NCC(=O)NCC(F)(F)F (stereo not drawn) [I-A2]
- AVERAGE DEAD IN % (Botrvtis cinerea; I-A2 alone 0.46875 ppm AI): 0%
- AVERAGE DEAD IN % (Botrvtis cinerea; I-A2 alone 0.9375 ppm AI): 0%
- AVERAGE DEAD IN % (Botrvtis cinerea; I-A2 alone 1.875 ppm AI): 0%
- AVERAGE DEAD IN % (Botrvtis cinerea; I-A2 alone 3.75 ppm AI): 0%
- AVERAGE DEAD IN % (Botrvtis cinerea; I-A2 alone 7.5 ppm AI): 0%
- AVERAGE DEAD IN % (Botrvtis cinerea; I-A2 alone 15 ppm AI): 0%
- AVERAGE DEAD IN % (Botrvtis cinerea; I-A2 alone 30 ppm AI): 0%
- AVERAGE DEAD IN % (Botrvtis cinerea; I-A2 alone 60 ppm AI): 0%
- AVERAGE DEAD IN % ([2]; I-A2 alone 0.1171875 ppm AI): 0%
- AVERAGE DEAD IN % ([2]; I-A2 alone 0.234375 ppm AI): 0%
- AVERAGE DEAD IN % ([2]; I-A2 alone 0.46875 ppm AI): 0%
- AVERAGE DEAD IN % ([2]; I-A2 alone 0.9375 ppm AI): 0%
- AVERAGE DEAD IN % ([2]; I-A2 alone 1.875 ppm AI): 0%
- AVERAGE DEAD IN % ([2]; I-A2 alone 3.75 ppm AI): 0%
- AVERAGE DEAD IN % ([2]; I-A2 alone 7.5 ppm AI): 0%
- AVERAGE DEAD IN % ([2]; I-A2 alone 15 ppm AI): 0%
- AVERAGE DEAD IN % ([2]; I-A2 alone 30 ppm AI): 0%
- AVERAGE DEAD IN % ([2]; I-A2 alone 60 ppm AI): 0%
- AVERAGE DEAD IN % (Septoria tritici; I-A2 alone 0.1171875 ppm AI): 0%
- AVERAGE DEAD IN % (Septoria tritici; I-A2 alone 0.234375 ppm AI): 0%
- AVERAGE DEAD IN % (Septoria tritici; I-A2 alone 0.46875 ppm AI): 0%
- AVERAGE DEAD IN % (Septoria tritici; I-A2 alone 0.9375 ppm AI): 0%
- AVERAGE DEAD IN % (Septoria tritici; I-A2 alone 1.875 ppm AI): 0%
- AVERAGE DEAD IN % (Septoria tritici; I-A2 alone 3.75 ppm AI): 0%
- AVERAGE DEAD IN % (Septoria tritici; I-A2 alone 7.5 ppm AI): 0%
- AVERAGE DEAD IN % (Septoria tritici; I-A2 alone 15 ppm AI): 0%
- AVERAGE DEAD IN % (Septoria tritici; I-A2 alone 30 ppm AI): 0%
- AVERAGE DEAD IN % (Septoria tritici; I-A2 alone 60 ppm AI): 0%
- AVERAGE DEAD IN % ([1]; I-A2 alone 0.1171875 ppm AI): 0%
- AVERAGE DEAD IN % ([1]; I-A2 alone 0.234375 ppm AI): 0%
- AVERAGE DEAD IN % ([1]; I-A2 alone 0.46875 ppm AI): 0%
- AVERAGE DEAD IN % ([1]; I-A2 alone 0.9375 ppm AI): 0%
- AVERAGE DEAD IN % ([1]; I-A2 alone 1.875 ppm AI): 0%
- AVERAGE DEAD IN % ([1]; I-A2 alone 3.75 ppm AI): 0%
- AVERAGE DEAD IN % ([1]; I-A2 alone 7.5 ppm AI): 0%
- AVERAGE DEAD IN % ([1]; I-A2 alone 15 ppm AI): 0%
- AVERAGE DEAD IN % COMPOUND I-A2 (Fusarium culmorum; 0.9375 PPM AI): 0%
- AVERAGE DEAD IN % COMPOUND I-A2 (Fusarium culmorum; 1.875 PPM AI): 0%
- AVERAGE DEAD IN % COMPOUND I-A2 (Fusarium culmorum; 3.75 PPM AI): 0%
- AVERAGE DEAD IN % COMPOUND I-A2 (Fusarium culmorum; 7.5 PPM AI): 0%
- AVERAGE DEAD IN % COMPOUND I-A2 (Fusarium culmorum; 15 PPM AI): 0%
- AVERAGE DEAD IN % COMPOUND I-A2 (Fusarium culmorum; 30 PPM AI): 0%
- AVERAGE DEAD IN % COMPOUND I-A2 (Fusarium culmorum; 60 PPM AI): 0%
- AVERAGE DEAD IN % (Fusarium culmorum; I-A2 alone 3.75 ppm AI): 0%
- AVERAGE DEAD IN % (Fusarium culmorum; I-A2 alone 7.5 ppm AI): 0%
- AVERAGE DEAD IN % (Fusarium culmorum; I-A2 alone 15 ppm AI): 0%
- AVERAGE DEAD IN % (Fusarium culmorum; I-A2 alone 30 ppm AI): 0%
- AVERAGE DEAD IN % (Fusarium culmorum; I-A2 alone 60 ppm AI): 0%

SMILES: CO/C=C(/C(=O)OC)c1ccccc1Oc1cc(Oc2ccccc2C#N)ncn1 [Azoxystrobin]
- AVERAGE DEAD IN % [2, 10]: 20%
- AVERAGE DEAD IN % [2, 11]: 50%
- AVERAGE DEAD IN % [2, 12]: 70%
- AVERAGE DEAD IN % ([2]; Azoxystrobin alone 0.125 ppm AI): 90%
- AVERAGE DEAD IN % (Septoria tritici; [11]): 20%
- AVERAGE DEAD IN % (Septoria tritici; [12]): 70%
- AVERAGE DEAD IN % ([1]; Azoxystrobin alone 0.0078125 ppm AI): 0%
- AVERAGE DEAD IN % [1, 10]: 20%
- AVERAGE DEAD IN % [1, 11]: 70%
- AVERAGE DEAD IN % [1, 12]: 90%
